Measured values reported in paper PMC8936434 (Frontiers in Pharmacology, 2022).
Like-named read-outs stand apart in the source and are kept apart here.

Key:
SW1573 = test: In vitro P-gp assay: antiproliferative activity in wild-type SW1573 cells; format: cell-based; details: Homo sapiens
Method: (§1) Compounds were tested against both cell lines in the presence or absence of 10 µM verapamil (a known P-gp and CYP3A4/5 inhibitor).

[1] = In vitro P-gp assay: antiproliferative activity in P-gp-overexpressing SW1573/P-gp cells; details: human
Method: as §1

hERG K+ channel (Kv11.1) = hERG K+ channel (Kv11.1) (Homo sapiens, UniProt Q12809); test: hERG (Kv11.1) current, whole-cell patch-clamp in hERG-HEK293 cells; format: cell-based
Method: hERG-HEK293 cells (BPS Bioscience, San Diego, United States), expressing hERG K^+ channel (Kv11.1), were cultured in Minimal Essential Medium (MEM) supplemented with 10% fetal bovine serum, 1% non-essential amino acids, 1% Na pyruvate, 1% penicillin/streptomycin, and 400 μg/ml geneticin ([Lazzerini et al., 2021]).
The bath solution contained (in mM): 136 NaCl, 5.4 KCl, 10 HEPES, 10 D-glucose ∙ H2O, 1 CaCl2 ∙ 2 H2O, 1 MgCl2 ∙ 6 H2O, pH 7.4 with NaOH, whereas the pipette solution consisted of (in mM): 130 KCl, 10 EGTA, 10 HEPES, 5 MgATP, 1 MgCl2 ∙ 6 H2O, pH 7.2 with KOH.
Whole-cell recording was performed as previously described ([Lazzerini et al., 2021]), and a depolarizing step from a holding potential of […] was applied to elicit the Kv11.1 current. Tail current was evoked by repolarizing the cell membrane to −50 mV for 4 s.

zebrafish ABCB4 = system: zebrafish ABCB4; parameters: method as in earlier work; details: concentrations up to 100 µM; ref [67]; cited from earlier work
HepG2 cells [2] = test: HepG2 cell viability (MTT assay); format: cell-based; details: Homo sapiens, mean ± SD, 3 experiments
Method: Human hepatoma (HepG2) cells (European Collection of Authenticated Cell Cultures) were cultured in Dulbecco’s modified Eagle’s medium (DMEM) supplemented with 10% heat-inactivated fetal bovine serum (FBS) and 2 mM L-glutamine at 37°C in 5% CO2 humidified atmosphere.

HepG2 cells [3] = test: LDH release from HepG2 cells; format: cell-based, Human
primary rat hepatocytes [4] = test: LDH release from primary rat hepatocytes; format: cell-based
primary rat hepatocytes [5] = test: Primary rat hepatocyte viability (trypan blue exclusion assay); format: cell-based; details: read-out: IC50, number of viable cells
primary rat hepatocytes [6] = test: Lipid peroxidation (MDA) in primary rat hepatocytes; details: compared to Dox
zebrafish embryos = test: Zebrafish embryo toxicity
Method: After 30 min, the eggs were collected, rinsed twice from debris using fresh embryo medium (Instant ocean), and transferred into Petri dishes containing the embryo medium.
Fertilized eggs were selected under a binocular stereomicroscope (PXS-VI, Optica) and transferred into 24-well plates. […] The embryo medium and 0.1% DMSO were used as controls. Treated embryos and controls were then incubated at 28 ± 0.5°C. Each experiment was repeated three times from three independent breedings. In each experiment, at least 3 wells with 12 embryos per treatment per concentration were used.
The zebrafish embryo toxicity assay was performed when fertilization rate was ≥90%. An assay was considered valid if the overall survival of embryos in negative controls was ≥90% until hatching.
All embryos were inspected for morphological characteristics at different developmental stages (48 and 72 hpf) as described by [Kimmel (1989)]. Lethal and teratogenic effects were recorded according to the Organisation for Economic Co-operation and Development (OECD) (236) guidelines for testing of chemicals. Mortality was determined by counting embryos with or without a visible heart beat at 72 hpf. For visual documentation of the malformations and heartbeat, embryos were imaged and recorded using a camera connected to the microscope (CKX41; Olympus, Tokyo, Japan). Each heartbeat was manually counted for 20 s and multiplied by 3 to calculate heart rate (beat/minute) ([Hoage et al., 2012]). At least three embryos per group were recorded and their heart beat counted.

primary rat hepatocytes [7] = test: GSH depletion in isolated rat hepatocytes; format: cell-based; details: compared to Dox
Method: Gluthatione (GSH) depletion was evaluated after 24, 48, or 72 h treatment with both anthracyclines. Isolated rat hepatocytes were centrifuged at 400 g for 3 min, and the pellet was used for measuring intracellular GSH by means of the spectrophotometric method based on the conversion of the sulfhydryl reagent 5,5′-dithiobis-(2-nitrobenzoic acid) (DTNB) to the yellow derivative 5′-thio-2-nitrobenzoic acid (TNB) at 412 nm ([Fau et al., 1992]).

recombinant human CYP3A4 = recombinant human CYP3A4 (Homo sapiens, UniProt P08684); test: In vitro inhibition of human CYP3A4
Method: Kinetic assays were carried out in a final volume of 100 µl containing 10 µM substrate, 2.5 nM recombinant CYP3A4, various concentrations of the tested compounds, and 20% NADPH regenerating system in 100 mM Tris–HCl (pH 7.4). Incubations took place in duplicate at 37°C in 96-multiwell plates; fluorescence was measured with a Victor2 plate reader (PerkinElmer Life Sciences, Turku, Finland). The reaction was started by adding NADPH, and fluorescence was measured at 2-min intervals for 40 min using excitation at 405 nm and emission at 460 nm.

SW1573/P-gp = test: In vitro P-gp assay: antiproliferative activity in P-gp-overexpressing SW1573/P-gp cells; details: P-gp-overexpressing cells
Method: as §1

[8] = 10 µM applied at 6 hpf, read at 72 hpf

hERG K+ channel (Kv11.1), sequence (Q12809 whole entry): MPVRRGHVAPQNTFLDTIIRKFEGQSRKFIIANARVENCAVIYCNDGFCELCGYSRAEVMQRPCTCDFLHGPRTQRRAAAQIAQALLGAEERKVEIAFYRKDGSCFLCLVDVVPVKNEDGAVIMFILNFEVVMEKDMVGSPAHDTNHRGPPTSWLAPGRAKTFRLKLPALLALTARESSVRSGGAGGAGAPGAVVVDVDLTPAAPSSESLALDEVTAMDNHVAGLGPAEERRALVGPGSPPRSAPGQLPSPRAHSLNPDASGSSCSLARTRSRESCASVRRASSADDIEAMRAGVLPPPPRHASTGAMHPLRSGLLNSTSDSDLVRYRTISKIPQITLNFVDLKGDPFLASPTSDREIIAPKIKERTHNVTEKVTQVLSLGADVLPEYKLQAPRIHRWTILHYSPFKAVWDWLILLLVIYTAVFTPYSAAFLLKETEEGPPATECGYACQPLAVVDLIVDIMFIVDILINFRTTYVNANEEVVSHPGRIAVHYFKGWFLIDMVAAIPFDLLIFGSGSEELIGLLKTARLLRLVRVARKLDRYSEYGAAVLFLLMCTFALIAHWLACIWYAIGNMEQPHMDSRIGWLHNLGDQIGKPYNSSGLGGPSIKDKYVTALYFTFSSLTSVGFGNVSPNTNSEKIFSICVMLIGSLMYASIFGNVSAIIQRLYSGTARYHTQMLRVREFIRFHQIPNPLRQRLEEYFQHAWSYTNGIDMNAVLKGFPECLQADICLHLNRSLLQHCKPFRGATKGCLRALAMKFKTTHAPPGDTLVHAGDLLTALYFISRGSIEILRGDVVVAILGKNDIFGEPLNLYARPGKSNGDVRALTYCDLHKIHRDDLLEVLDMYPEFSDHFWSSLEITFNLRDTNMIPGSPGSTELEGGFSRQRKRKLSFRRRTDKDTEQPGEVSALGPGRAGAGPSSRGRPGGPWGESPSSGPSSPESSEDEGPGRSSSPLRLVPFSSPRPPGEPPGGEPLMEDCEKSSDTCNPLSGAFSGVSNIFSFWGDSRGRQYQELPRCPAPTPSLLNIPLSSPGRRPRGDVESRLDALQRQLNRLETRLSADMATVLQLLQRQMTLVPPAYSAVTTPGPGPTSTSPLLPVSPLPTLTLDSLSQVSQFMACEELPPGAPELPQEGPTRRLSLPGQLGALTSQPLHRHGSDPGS
recombinant human CYP3A4, sequence (P08684 whole entry): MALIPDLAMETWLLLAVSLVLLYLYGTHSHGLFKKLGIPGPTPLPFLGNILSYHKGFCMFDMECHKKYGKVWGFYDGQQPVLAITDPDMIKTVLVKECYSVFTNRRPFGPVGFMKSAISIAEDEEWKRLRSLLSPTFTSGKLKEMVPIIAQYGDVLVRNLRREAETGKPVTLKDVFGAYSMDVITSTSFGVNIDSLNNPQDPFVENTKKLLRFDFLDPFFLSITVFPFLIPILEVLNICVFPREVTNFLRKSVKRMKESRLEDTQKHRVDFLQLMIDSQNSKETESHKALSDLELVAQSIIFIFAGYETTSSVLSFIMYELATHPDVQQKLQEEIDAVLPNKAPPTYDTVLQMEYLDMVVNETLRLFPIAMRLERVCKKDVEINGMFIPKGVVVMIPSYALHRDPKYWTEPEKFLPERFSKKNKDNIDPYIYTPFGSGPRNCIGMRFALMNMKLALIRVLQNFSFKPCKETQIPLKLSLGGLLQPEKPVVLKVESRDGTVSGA

Row | SMILES | GI50 (SW1573; SW1573, 48 h) [nM] | GI50 at 48 h [1] [nM] | IC50 (HepG2 cells [2]; 24 h) [nM] | IC50 (HepG2 cells [2]; 48 h) [nM] | IC50 (HepG2 cells [2]; 72 h) [nM] | Release of LDH (primary rat hepatocytes [4]) | IC50 (primary rat hepatocytes [5]) [nM] | other results
1 | COc1cc2c(c(OC)c1OC)-c1ccc(OC)c(=O)cc1[C@@H](NC(C)=O)CC2 [Colchicine, colchicine] | 67 ± 15 | 2370 | – | – | – | – | – | –
2 | COc1cccc2c1C(=O)c1c(O)c3c(c(O)c1C2=O)C[C@@](O)(C(=O)CO)C[C@@H]3O[C@H]1C[C@H](N)[C@H](O)[C@H](C)O1 [Dox, doxorubicin] | 70 ± 8.6 | 1600 | 6110 ± 660 | 460 ± 30 | 190 ± 10 | increased the release of LDH in a concentration-dependent manner | 9680 ± 890 | Effect on hERG currents (hERG K+ channel (Kv11.1); up to 100 μM): did not affect; Effect on zebrafish ABCB4 ATPase activity (zebrafish ABCB4): no major effect; LDH release (cytotoxicity) compared with Sdox (HepG2 cells [3]; HepG2, regardless of timing of exposure (24, 48, 72 h)): cytotoxic at concentrations lower than those of Sdox
3 | CC(=O)O[C@H]1C(=O)[C@@]2(C)[C@H]([C@H](OC(=O)c3ccccc3)[C@]3(O)C[C@H](OC(=O)[C@H](O)[C@@H](NC(=O)c4ccccc4)c4ccccc4)C(C)=C1C3(C)C)[C@]1(OC(C)=O)CO[C@@H]1C[C@@H]2O [Paclitaxel, paclitaxel] | 0.53 ± 0.22 | 298 ± 113 | – | – | – | – | – | –
4 | COc1cccc2c1C(=O)c1c(O)c3c(c(O)c1C2=O)C[C@@](O)(C(=O)COC(=O)c1ccc(-c2ssc(=S)c2-c2ccccc2)cc1)C[C@@H]3O[C@H]1C[C@H](N)[C@H](O)[C@H](C)O1 [Sdox, 2-((2S,4S)-4-(((2R,4S,5S,6S)-4-amino-5-hydroxy-6-methyltetrahydro-2H-pyran-2-yl)oxy)-2,5,12-trihydroxy-7-methoxy-6,11-dioxo-1,2,3,4,6,11-hexahydrotetracen-2-yl)-2-oxoethyl 4-(4-phenyl-3-thioxo-3H-1,2-dithiol-5-yl)benzoate] | 873 ± 410 | – | 8690 ± 310 | 3210 ± 160 | 1390 ± 30 | increased the release of LDH in a concentration-dependent manner | 16500 ± 1010 | Effect on hERG currents (hERG K+ channel (Kv11.1); up to 10 μM): did not affect; MDA levels (index of lipid peroxidation) (primary rat hepatocytes [6]): lower increase in the MDA levels; Effect on number of live embryos (zebrafish embryos; [8]): ineffective; Embryos alive (zebrafish embryos; [8]): ~90%; Developmental toxicity (zebrafish embryos; 10 µM, 72 hpf): did not display developmental toxicity; Concentration above which a precipitate was observed (zebrafish embryos; zebrafish embryo medium): > 10 µM; Reduced GSH (primary rat hepatocytes [7]): lower decrease in the reduced GSH; IC50 (recombinant human CYP3A4): 3100 nM; Concentration at which LDH release was increased (HepG2 cells [3]; HepG2, 24 and 48 h of treatment, only at the maximum concentration tested): 10 µM; Lowest concentration at which LDH release was increased (HepG2 cells [3]; HepG2, 72 h of treatment): 4 µM; Times less affected by P-gp compared with parent compound Dox (SW1573/P-gp): ca. 6.5 times; GI50 [1]: 3020 nM
5 | CC[C@]1(O)C[C@@H]2CN(CCc3c([nH]c4ccccc34)[C@@](C(=O)OC)(c3cc4c(cc3OC)N(C)[C@H]3[C@@](O)(C(=O)OC)[C@H](OC(C)=O)[C@]5(CC)C=CCN6CC[C@]43[C@@H]65)C2)C1 [Vinblastine, vinblastine] | 0.94 ± 0.35 | 16 ± 4.7 | – | – | – | – | – | –
6 | CC[C@]1(O)C[C@H]2CN(CCc3c([nH]c4ccccc34)[C@@](C(=O)OC)(c3cc4c(cc3OC)N(C=O)[C@H]3[C@@](O)(C(=O)OC)[C@H](OC(C)=O)[C@]5(CC)C=CCN6CC[C@]43[C@@H]65)C2)C1 [Vincristine, vincristine] | – | – | – | – | – | – | – | GI50 (SW1573; SW1573, w/o verapamil, 48 h exposure, mean ± SD (n = 3–5), read-out: GI50): 3.9 ± 1.5 nM; GI50 at 48 h ([1]; SW1573/P-gp cells (P-gp-overexpressing variant of SW1573)): 86 ± 15 nM
